In patent publication US20070098636A1, “Method of identifying responders to treatment with insulin sensitizers” (priority 2003, published 2007):

Columns and labels:
db/db mice = test: Adiponectin complex distribution in serum of treated db/db mice (velocity sedimentation, quantitative Western blot); format: in vivo, mouse; conditions: male db/db mice, 10 mg/kg-day by gavage, following 11 days of treatment
Protocol: (§1) Velocity sedimentation/gel filtration chromatography for separation of adiponectin complexes—5-20% sucrose gradients in 10 mM HEPES pH 8, 125 mM NaCl were poured stepwise (5%, 10%, 15%, 20%) in 2-ml thin-walled ultracentrifuge tubes (Becton Dickinson) and allowed to equilibrate overnight at 4° C. Following layering of the sample on top (diluted 1:10 with 10 mM HEPES pH 8, 125 mM NaCl in the case of serum), the gradients were spun at 55,000 RPM for four hours at 4° C. in a TLS55 rotor in a Beckman TL-100 tabletop ultracentrifuge. 150 μL gradient fractions were sequentially retrieved from the top of the gradient and analyzed by quantitative Western blot analysis.
(§2) Immunoblotting—Separation of proteins by SDS-PAGE, fluorography, and immunoblotting were performed as described previously (20). Primary and secondary antibodies were diluted in TBS with 0.05% Tween-20 and 1% BSA. Horseradish peroxidase conjugated secondary antibodies were detected with enhanced chemiluminescence according to the manufacturer's instructions (Pierce). For quantitative Western blotting, proteins were transferred to BA83 nitrocellulose (Schleicher & Schuell) after SDS-PAGE. […] Blots were analyzed with a Phosphoimager (Molecular Dynamics) and fractions 4-6 and 9-11 from velocity sedimentation (LMW and […] adiponectin, respectively) were quantitated with Imagequant Software. […]

non-diabetic human males = test: Human Clinical Study A: plasma adiponectin and adiponectin complexes pre- and post-treatment; format: in vivo; conditions: 4 mg bid for 14 days
Protocol: as §1, §2

## CN(CCOc1ccc(CC2SC(=O)NC2=O)cc1)c1ccccn1 (stereo not drawn) [rosiglitazone]
db/db mice
  percentage of adiponectin found in the high molecular weight (HMW) form: approximately 45 % of total circulating adiponectin
non-diabetic human males
  total adiponectin relative to placebo: about 2 fold
non-diabetic human males; pre-treatment value 20-25%
  HMW/total adiponectin ratio, post-treatment value: 45-50%
